Reference: patent publication US11970470B1, “{5-chloro-2-(2-(3-(substitutedphenyl)-1,2,4-oxadiazol-5-yl)ethyl)phenyl}(phenyl)methanones as larvicidal agents” (KING FAISAL UNIVERSITY, priority 2023, dated 2024)
Where two headings read alike, the source gives them in different places.

How the values were obtained:
Anopheles arabiensis = experiment: Larvicidal screening (WHO protocol), 3rd instar larvae; type: in vivo; conditions: for mortality at 4 µg/mL: 4 μg/mL
Description: Anopheles arabiensis was used in the study according to the protocol described by WHO (1975) guidelines in an insectary simulating the temperature (27.5° C.), humidity (70%), and lighting (12/12) of a malaria-endemic environment. One mL of test compound (1 mg/mL) was added to 1 mL of acetone and followed by […] of distilled water to obtain a final concentration of 4 μg/mL. Thirty individuals of 3rd instar larvae were introduced into a container. Negative control was set up using the solvent (acetone) and distilled water, and a positive control included Temephos, which is an active emulsified organophosphate larvicidal used by malaria control programs. Larval mortality was examined for each container separately for 24 h and fed specially made cat food that contained less oil/fat content. The percentage of mortality was determined relative to the initial number of larvae exposed.
Differences in larval mortality between treatments were assessed with generalized linear models using a quasi-Poisson link function. Anopheles arabiensis mortality was the dependent variable, while fixed effects were test compounds and observation period (24 and 48 h). A p-value<0.05 was considered statistically significant. Throughout the text, the results are presented as the adjusted mean±the standard error.

[1] = Anopheles arabiensis larvae exposed for 24 h, read-out: Mortality in % (Mean ± SEM) 24 h
[2] = Anopheles arabiensis larvae exposed for 48 h, read-out: Mortality in % (Mean ± SEM) 48 h

O=C(c1ccccc1)c1cc(Cl)ccc1OCc1nc(-c2ccc(I)cc2)no1 [Compound 5c, {5-chloro-2-[(3-(4-iodophenyl)-1,2,4-oxadiazol-5-yl)-methoxy]-phenyl}-(phenyl)-methanone]
melting point: 124 to 126 °C

CCOc1ccc(-c2noc(COc3ccc(Cl)cc3C(=O)c3ccccc3)n2)cc1 [Compound 5e, {5-Chloro-2-[(3-(4-ethoxyphenyl)-1,2,4-oxadiazol-5-yl)-methoxy]-phenyl}-(phenyl)-methanone]
melting point: 80 to 82 °C

CC(C)c1ccc(-c2noc(COc3ccc(Cl)cc3C(=O)c3ccccc3)n2)cc1 [Compound 5g, {5-Chloro-2-[(3-(4-isopropylphenyl)-1,2,4-oxadiazol-5-yl)-methoxy]-phenyl}-(phenyl)-methanone]
melting point: 110 to 112 °C

O=C(c1ccccc1)c1cc(Cl)ccc1OCc1nc(-c2ccc(F)c(Cl)c2)no1 [Compound 5f, {5-Chloro-2-[(3-(3-chloro-4-fluorophenyl)-1,2,4-oxadiazol-5-yl)-methoxy]-phenyl}-(phenyl)-methanone]
mortality at 4 µg/mL (Anopheles arabiensis; [1]): 98.2 ± 1.22%
mortality at 4 µg/mL (Anopheles arabiensis; [2]): 100 ± 2.01%
larval mortality rate in 48 hours (Anopheles arabiensis; in 48 hours, unit not given): 100.00±2.01

COc1cc(-c2noc(COc3ccc(Cl)cc3C(=O)c3ccccc3)n2)ccc1F [Compound 5i, {5-Chloro-2-[(3-(4-fluoro-3-methoxyphenyl)-1,2,4-oxadiazol-5-yl)-methoxy]-phenyl}-(phenyl)-methanone]
mortality at 4 µg/mL (Anopheles arabiensis; [1]): 79.5 ± 1.09%
mortality at 4 µg/mL (Anopheles arabiensis; [2]): 84.7 ± 1.88%

Cc1cc(-c2noc(COc3ccc(Cl)cc3C(=O)c3ccccc3)n2)ccc1F [Compound 5h, {5-Chloro-2-[(3-(4-fluoro-3-methylphenyl)-1,2,4-oxadiazol-5-yl)-methoxy]-phenyl}-(phenyl)-methanone]
mortality at 4 µg/mL (Anopheles arabiensis; [1]): 83.6 ± 2.01%
mortality at 4 µg/mL (Anopheles arabiensis; [2]): 86.1 ± 1.95%

O=C(c1ccccc1)c1cc(Cl)ccc1OCc1nc(-c2ccc(F)cc2)no1 [Compound 5b, {5-Chloro-2-[(3-(4-fluorophenyl)-1,2,4-oxadiazol-5-yl)-methoxy]-phenyl}-(phenyl)-methanone]
mortality at 4 µg/mL (Anopheles arabiensis; [1]): 91.7 ± 1.61%
mortality at 4 µg/mL (Anopheles arabiensis; [2]): 94.7 ± 1.9%

Cc1cc(F)c(-c2noc(COc3ccc(Cl)cc3C(=O)c3ccccc3)n2)cc1F [Compound 5d, {5-Chloro-2-[(3-(2,5-difluoro-4-methylphenyl)-1,2,4-oxadiazol-5-yl)-methoxy]-phenyl}-(phenyl)-methanone]
melting point: 87 to 89 °C

O=C(c1ccccc1)c1cc(Cl)ccc1OCc1nc(-c2ccccc2)no1 [Compound 5a, {5-Chloro-2-[(3-(phenyl)-1,2,4-oxadiazol-5-yl)-methoxy]-phenyl}-(phenyl)-methanone]
melting point: 108 to 110 °C
